From patent US20080287662A1, “Balanites Aegyptiaca Saponins and Uses Thereof” (priority 2005, published 2008)
Marks after values point to notes of the source that are not given here.

Key:
[1] = tested on: Aedes aegypti mosquito larvae; test: Effect of purified main mesocarp saponin on Aedes aegypti larvae, pupa and adults; assay type: in vivo
Procedure: Eggs of laboratory-grown Aedes aegypti were hatched in tap water in a growth chamber with a 16-hour photoperiod, at a temperature of 25±3° C. Twenty to twenty five larvae at the late 3rd and early 4th instars were placed into 150-ml disposable plastic cups containing 100 ml of tap water together with water-soluble saponin solutions of various concentrations. During the experiments, treated and control (0 mg/L saponin) cups were examined after 2, 4, 9 and 11 days and number of alive larvae or adults were counted. The data are presented in percentage together with an analysis of variance using the Tukey-Kramer HSD test (SAS's JMP software) at the 0.01 level of significance.

[2] = tested on: Escherichia coli; test: Bacterial growth in LB (OD660); assay type: cell-based
Procedure: Standard Luria Broth solution (LB) was prepared using […] yeast extract, 10 mg NaCl and 10 mg Typtone per ml of DDW. A small portion of the Escherichia coil inoculum (LMC1492 strain, obtained from the Life Sciences Department of the Ben-Gurion University) was added to the LB solution in a sterilized Erlenmeyer and inoculated in a rotary water bath incubator at 250 rpm and 37° C. The tested extracts were first prepared in 5% in LB solution and used as stock solution for further dilution. Lower concentrations were obtained by mixing this stock solution in the required ratios with plain LB solution. The extract containing solution of the required concentrations were prepared in 10/140 mm glass test tubes in volumes of 1.8 ml each and incubated in a rotary water bath incubator (Gyvotory-676, New Brunswick Scientific Co. Inc, NY) at 250 rpm and 37° C.

[3] = tested on: Pythium aphanidermatum; test: Mycelial colony growth inhibition in vitro; assay type: cell-based
Procedure: Cultures of Pythium aphanindermatum were isolated from plant species showing Pythium symptoms. The isolate was placed in potato dextrose agar (PDA, Difco, Detroit, Mich., USA) supplemented with 100 ppm of streptomycin and incubated in the dark at 27° C. for 2 days. The colony of Pythium was identified visually and microscopically and sub-cultured on PDA without antibiotics as described by Tsror et al (2001).
For fungal growth inhibition measurements five concentrations of Balanites mesocarp saponin (ME) preparation (0.1, 0.5, 1.0, 2.0 and 4.0% w/v) and two concentrations of Metalaxyl-10 (a systemic benzenoid fungicide, 1 and 5 ppm as positive control) were added in separate Erlenmeyer flasks containing sterilized (121° C., 2 atm, 20 min) PDA, and mixed properly. Samples of PDA containing Balanites mesocarp saponin preparation and Metalaxyl-10 (15 ml) were poured into sterilized petri dishes separately and allowed to solidify. 5 mm in diameter agar plug of the fungal isolate was placed in the center of each plate. The plates were incubated at 27° C. (10 plates per treatment). The colony diameter of the mycelial growth was measured after 24 and 48 h and the inhibitory activity of each treatment was expressed as the growth inhibition percentage as compared to the negative control (0% ME preparation) using the formula: Growth inhibition percentage=[100-(Treatment growth/Control growth*100)].

[4] = tested on: mung bean cuttings; test: Rooting of mung bean cuttings; assay type: in vivo; conditions: IBA 100 μM, saponins 100 ppm; rooting assessed seven days
Procedure: This effect was increased as saponin concentration increased up to 500 ppm for Balanites mesocarp extract saponins and 50 ppm for Balanites root extract saponins, and up to 100 ppm for Quillaja saponaria bark extract saponins. The treatment solution was replaced by fresh water after 24 h and the rooting was assessed 10 days after the initiation of the experiment. The stimulating effect of saponins on root formation may be related to their hormone-like effect, but their effect on root elongation seems to be mainly due to their influence on increase of water uptake. The enhancing effect of saponins on rooting of mung bean cuttings when applied together with the synthetic plant hormone indole-3-butyric acid (IBA) is shown in Table 17. […] Similar, but weaker, enhancing effect was found with Quillaja bark extract saponins (the treatment solution was replaced by fresh water after 24 h and the rooting was assessed seven days after the initiation of the experiment).

[5] = tested on: mung bean seeds and seedlings; test: Mung bean germination, growth and development under saline water irrigation; assay type: in vivo; parameters: key to Germination (4 days): ++++ more advanced seedling; typical germination using tap water +++ (1 cm height with two leave starting to be expended); ++ less advanced seedling; + not germinated seedling; key to Foliage (14 days): aaaa more elongated seedlings; Typical mung bean foliage development 14 days after germination using tap water aaa (~10 cm seedling with fully expanded two leave and abscised cotyledons); aa less elongated seedlings; a dwarf seedling; key to Root: bbbb more elongated and branched roots; Typical mung bean root system 14 days after germination using tap water bbb (~6 cm well branched roots); bb less elongated roots; b short and necrotic root system; conditions: for Root: 14 days after germination
Procedure: Addition of Balanites mesocarp extract (ME) saponins in moderate concentration of […] to the irrigation saline water stimulated the germination and development of mung bean seeds in comparison to control. It also stimulated the germination of the seeds in comparison to control and to saline treatments. The effect on the foliage and the roots of the treated mung bean seedlings corresponded to the effect on the germination. These effects are directly related to the effect of Balanites mesocarp saponin treatment on water uptake by the mung bean seeds and germinated seedlings.

[6] = Vitamin C delivery through isolated rat skin; assay type: in vitro ADME; conditions: 25° C., 60% relative humidity
Procedure: The effect of Balanites mesocarp saponin preparation on delivery of vitamin C through the skin was tested using isolated rat skin system. 100 μl of saponin nanovesicles containing encapsulated vitamin C (2 mg) were prepared from saponin extracted from Balanites mesocarp by the procedure A described in Example 5(i) above. 15 μl of the preparation were loaded on an isolated rat skin in three replicates. The treatments were applied in a controlled environment (25° C. and 60% relative humidity) and incubated for 30 or 60 min. The solution delivered through the isolated skin was tested using an HPLC system for detecting the level of vitamin C corresponding to a standard peak of vitamin C.

[7] = Penetration rate of 14C-labeled 2,4-D across isolated leaf cuticle membranes with saponin adjuvant; parameters: species or system Citrus grandis; conditions: 1% (w/v) adjuvant, 30° C. and 30% RH

CC(CCC1(O)O[C@H]2C[C@H]3[C@@H]4CC=C5C[C@@H](O[C@@H]6O[C@H](CO)[C@@H](O[C@@H]7O[C@H](CO)[C@@H](O)[C@H](O)[C@H]7O)[C@H](O)[C@H]6O[C@@H]6O[C@@H](C)[C@H](O)[C@@H](O)[C@H]6O)CC[C@]5(C)[C@H]4CC[C@]3(C)[C@H]2[C@@H]1C)CO[C@@H]1O[C@H](CO)[C@@H](O)[C@H](O)[C@H]1O (stereo partly drawn) [26-(O-β-D-glucopyranosyl)-3β,22,26-trihydroxyfurost-5-ene 3-O-β-D-glucopyranosyl-(1→4)-[α-L-rhamnopyranosyl-(1→2)]-β-D-glucopyranoside]
% adults ([1]; 10 ppm, day 0): 0%
% dead larvae ([1]; 10 ppm, day 0): 0%
% pupa ([1]; 10 ppm, day 0): 0%
% adults ([1]; 10 ppm, day 2): 0%
% dead larvae ([1]; 10 ppm, day 2): 0 d %
% pupa ([1]; 10 ppm, day 2): 0%
% adults ([1]; 10 ppm, day 4): 0%
% dead larvae ([1]; 10 ppm, day 4): 0 d %
% pupa ([1]; 10 ppm, day 4): 41 ab %
% adults ([1]; 10 ppm, day 9): 41 bc %
% dead larvae ([1]; 10 ppm, day 9): 0 d %
% pupa ([1]; 10 ppm, day 9): 0 b %
% adults ([1]; 10 ppm, day 11): 87 a %
% dead larvae ([1]; 10 ppm, day 11): 1.25 d %
% pupa ([1]; 10 ppm, day 11): 0%
% adults ([1]; 100 ppm, day 0): 0%
% dead larvae ([1]; 100 ppm, day 0): 0%
% pupa ([1]; 100 ppm, day 0): 0%
% adults ([1]; 100 ppm, day 2): 0%
% dead larvae ([1]; 100 ppm, day 2): 0 d %
% pupa ([1]; 100 ppm, day 2): 0%
% adults ([1]; 100 ppm, day 4): 0%
% dead larvae ([1]; 100 ppm, day 4): 0 d %
% pupa ([1]; 100 ppm, day 4): 45 a %
% adults ([1]; 100 ppm, day 9): 70 a %
% dead larvae ([1]; 100 ppm, day 9): 6.25 d %
% pupa ([1]; 100 ppm, day 9): 0 b %
% adults ([1]; 100 ppm, day 11): 85 a %
% dead larvae ([1]; 100 ppm, day 11): 6.25 cd %
% pupa ([1]; 100 ppm, day 11): 0%
% adults ([1]; 300 ppm, day 0): 0%
% dead larvae ([1]; 300 ppm, day 0): 0%
% pupa ([1]; 300 ppm, day 0): 0%
% adults ([1]; 300 ppm, day 2): 0%
% dead larvae ([1]; 300 ppm, day 2): 50 c %
% pupa ([1]; 300 ppm, day 2): 0%
% adults ([1]; 300 ppm, day 4): 0%
% dead larvae ([1]; 300 ppm, day 4): 50 c %
% pupa ([1]; 300 ppm, day 4): 15 bc %
% adults ([1]; 300 ppm, day 9): 15 d %
% dead larvae ([1]; 300 ppm, day 9): 50 c %
% pupa ([1]; 300 ppm, day 9): 33.25 a %
% adults ([1]; 300 ppm, day 11): 50 b %
% dead larvae ([1]; 300 ppm, day 11): 48.75 bc %
% pupa ([1]; 300 ppm, day 11): 0%
% adults ([1]; 500 ppm, day 0): 0%
% dead larvae ([1]; 500 ppm, day 0): 0%
% pupa ([1]; 500 ppm, day 0): 0%
% adults ([1]; 500 ppm, day 2): 0%
% dead larvae ([1]; 500 ppm, day 2): 77.5 b %
% pupa ([1]; 500 ppm, day 2): 0%
% adults ([1]; 500 ppm, day 4): 0%
% dead larvae ([1]; 500 ppm, day 4): 78.75 b %
% pupa ([1]; 500 ppm, day 4): 9.5 c %
% adults ([1]; 500 ppm, day 9): 20 cd %
% dead larvae ([1]; 500 ppm, day 9): 78.25 b %
% pupa ([1]; 500 ppm, day 9): 1.75 b %
% adults ([1]; 500 ppm, day 11): 22.5 c %
% dead larvae ([1]; 500 ppm, day 11): 78.25 ab %
% pupa ([1]; 500 ppm, day 11): 0%
% adults ([1]; 800 ppm, day 0): 0%
% dead larvae ([1]; 800 ppm, day 0): 0%
% pupa ([1]; 800 ppm, day 0): 0%
% adults ([1]; 800 ppm, day 2): 0%
% dead larvae ([1]; 800 ppm, day 2): 95 a %
% pupa ([1]; 800 ppm, day 2): 0%
% adults ([1]; 800 ppm, day 4): 0%
% dead larvae ([1]; 800 ppm, day 4): 95 a %
% pupa ([1]; 800 ppm, day 4): 1.75 c %
% adults ([1]; 800 ppm, day 9): 0 d %
% dead larvae ([1]; 800 ppm, day 9): 93.75 a %
% pupa ([1]; 800 ppm, day 9): 0 b %
% adults ([1]; 800 ppm, day 11): 5 c %
% dead larvae ([1]; 800 ppm, day 11): 94.25 a %
% pupa ([1]; 800 ppm, day 11): 0%
% adults ([1]; 1000 ppm, day 0): 0%
% dead larvae ([1]; 1000 ppm, day 0): 0%
% pupa ([1]; 1000 ppm, day 0): 0%
% adults ([1]; 1000 ppm, day 2): 0%
% dead larvae ([1]; 1000 ppm, day 2): 90 a %
% pupa ([1]; 1000 ppm, day 2): 0%
% adults ([1]; 1000 ppm, day 4): 0%
% dead larvae ([1]; 1000 ppm, day 4): 94 a %
% pupa ([1]; 1000 ppm, day 4): 3.75 c %
% adults ([1]; 1000 ppm, day 9): 3.75 d %
% dead larvae ([1]; 1000 ppm, day 9): 93.75 a %
% pupa ([1]; 1000 ppm, day 9): 0 b %
% adults ([1]; 1000 ppm, day 11): 3.75 c %
% dead larvae ([1]; 1000 ppm, day 11): 96.25 a %
% pupa ([1]; 1000 ppm, day 11): 0%
growth inhibition ([2]; 1.0% (w/v)): 33.3%
concentration up to which bacterial growth was increased ([2]; series 0.01-1.0% w/v): 0.5 % (w/v)
% Growth inhibition ([3]; 0.1% w/v, 24 h): 4.29 ± 1.50 d %
% Growth inhibition ([3]; 0.1% w/v, 48 h): 1.00 ± 0.01 e %
% Growth inhibition ([3]; 0.5% w/v, 24 h): 13.96 ± 3.21 d %
% Growth inhibition ([3]; 0.5% w/v, 48 h): 5.35 ± 1.32 e %
% Growth inhibition ([3]; 1.0% w/v, 24 h): 66.39 ± 3.52 c %
% Growth inhibition ([3]; 1.0% w/v, 48 h): 26.01 ± 2.95 c %
% Growth inhibition ([3]; 2.0% w/v, 24 h): 81.96 ± 1.30 b %
% Growth inhibition ([3]; 2.0% w/v, 48 h): 70.87 ± 2.57 b %
% Growth inhibition ([3]; 4.0% w/v, 24 h): 82.47 ± 1.30 b %
% Growth inhibition ([3]; 4.0% w/v, 48 h): 80.01 ± 0.42 b %

O=C(O)CCCc1c[nH]c2ccccc12 [IBA, indole-3-butyric acid]
Average root length [4]: 10.1 ± 0.4^cd mm
Number of roots per cutting [4]: 28.3 ± 1.3^c

[Cl-].[Na+] [NaCl]
Foliage (14 days) ([5]; 75 mM): aa
Germination (4 days) ([5]; 75 mM): ++
Root ([5]; 75 mM): bbb
Foliage (14 days) ([5]; 150 mM): a
Germination (4 days) ([5]; 150 mM): +
Root ([5]; 150 mM): bb

O=C1O[C@H]([C@@H](O)CO)C(O)=C1O [Vitamin C, ascorbic acid]
Vitamin C level in skin ([6]; 30 minutes incubation): 259 ± 109 ng/cm^2 skin surface area
Vitamin C level in skin ([6]; 60 minutes incubation): 326 ± 131 ng/cm^2 skin surface area

Triton X-100
Factor increase (times) of penetration rate vs DDW [7]: 18.6 times
Penetration rate of 2,4-D (^14C) [7]: 11.00 × 10^−5 a h^−1
Factor increase (times) of penetration rate vs DDW ([7]; listed as Triton): 19.1 times
Penetration rate of 2,4-D (^14C) ([7]; listed as Triton): 0.00011 h⁻¹
